Reference: the NIST ThermoML archive (doi:10.1021/je700339f)
Numbers after ± are expanded uncertainties.

Assay: xn = mol fraction of the nth substance listed
Conditions: 298 K, Liquid

ClCCCl [1,2-dichloroethane] + CC(=O)N(C)C
mass density [kg/m3]
Conditions	x2 = 0.0977	x2 = 0.2003	x2 = 0.2988	x2 = 0.4022	x2 = 0.4999	x2 = 0.6007	x2 = 0.7008	x2 = 0.7988	x2 = 0.8997
17500 kPa	–	–	–	–	–	–	–	1001.5 ± 6	973.7 ± 5.9
17900 kPa	–	–	–	1121.5 ± 6.8	–	–	–	–	–
18000 kPa	1225.8 ± 7.4	1189.5 ± 7.3	1155.7 ± 7.1	–	1090.4 ± 6.6	1059.5 ± 6.4	1029.9 ± 6.2	1001.8 ± 6	974 ± 5.9
18500 kPa	1226.1 ± 7.4	1189.8 ± 7.3	1156.1 ± 7.1	1122 ± 6.8	1090.8 ± 6.6	1059.8 ± 6.4	1030.2 ± 6.2	1002.1 ± 6	974.3 ± 5.9
19000 kPa	1226.6 ± 7.4	1190.3 ± 7.3	1156.5 ± 7.1	1122.4 ± 6.8	1091.2 ± 6.6	1060.2 ± 6.4	1030.6 ± 6.2	1002.5 ± 6	974.7 ± 5.9
19500 kPa	1227 ± 7.5	1190.6 ± 7.3	1156.8 ± 7.1	1122.7 ± 6.8	1091.5 ± 6.6	1060.5 ± 6.4	1030.9 ± 6.2	1002.7 ± 6	975 ± 5.9
20000 kPa	1227.5 ± 7.5	–	1157.2 ± 7.1	1123.1 ± 6.8	1091.9 ± 6.6	1060.8 ± 6.4	1031.2 ± 6.2	1003 ± 6	–
20100 kPa	–	1191.1 ± 7.3	–	–	–	–	–	–	975.4 ± 5.8
